As a reminder, the Solubility is the concentration that dissolves in the medium under given conditions. As usually defined, the GI50 is the concentration that inhibits growth by half. Lower therefore signals more potent growth inhibition.

Series [1] can be described thus: Metabolic half-life and clearance (HLM). The class given is in vitro ADME.
Series [2] relates to primary murine Hh-dependent MB cell line (MERP). The series can be described thus: Antiproliferation in primary Hh-dependent MB cells (MERP). The class given is cell-based. As to conditions: Mus musculus. Here is the method:
Secondary In Vitro Evaluation. Based on their activity in ASZ cells, several compounds were evaluated further in a primary murine Hh-dependent MB cell line (MERP).
(§1) General Information for Cell Culture Studies Protocols for general cell culture, qPCR, and Hh inhibition ASZ cells are as previously described.
(§2) General Information for Cell Culture Studies. Protocols for general cell culture, qPCR, and Hh inhibition ASZ cells are as previously described.

A short description of series [3]: Solubility.
Series [4] is described as follows: Parallel artificial membrane permeability assay (PAMPA). The class given is in vitro ADME. Conditions: passive permeability. An excerpt: (§3) Preliminary In Vitro Pharmacokinetic Assays.
Series [5] addresses CYP3A4 (Homo sapiens, UniProt P08684). In words: CYP3A4 inhibition.
Experimental: Additionally, CYP3A4 inhibition and P-glycoprotein (P-gp) efflux of each compound were evaluated.
Series [6] addresses P-glycoprotein (P-gp) (Homo sapiens, UniProt P08183). The series can be described thus: P-glycoprotein (P-gp) efflux. As to conditions: Table P1. The class given is in vitro ADME.
From the text: as §3

Series [7] has as its system Gli1 mRNA levels in the murine BCC cell line ASZ-001 (Hh pathway). In words: Hh pathway inhibition: endogenous Gli1 mRNA (qRT-PCR) in ASZ-001 cells. The class given is cell-based. On the procedure:
Initial Hh inhibition studies.
as §1, §2
Gene Expression Assay Protocol (ASZ-001): Cells are seeded (10,000 cells per well; 100 μL total volume per well) in a 96-well tissue culture plate. After 24 h of incubation (37° C., 5% CO2), growth media was removed and replaced with low FBS media. Cells were incubated for an additional 24 h. After this time, DMSO (vehicle control) and liposomes (Aqueous Solution) were added to the wells. […]
Rt-PCR Protocol: Following treatment and incubation periods, both RNA extraction and cDNA synthesis were performed using a TaqMan Cells-to-CT (fast) kit. cDNA synthesis utilized a BioRad MyCycler and was programmed according to the manufacturer's instructions. Quantitative RT-PCR was performed on an ABI 7500 system and made use of the following TaqMan Gene Expression Probes: mouse ActB (Mm00607939_s1) and mouse Gli1 (Mm00494654_m1). Relative gene expression levels were computed via ΔΔCT method using GraphPad Prism. Corresponding IC50 values were calculated as mean±SEM for at least three separate experiments performed in triplicate.
In general terms: In qPCR the cycle at which signal appears reflects the starting amount.

Where [8] appears, read: Mus musculus, ASZ001, Table P2, ASZ cells, Gli1 mRNA, 48 h incubation, read-out: IC50.

Molecules are shown by their SMILES. Values after ≈ are worked out from the molar mass of the structure shown. Like-named read-outs stand apart in the source and are kept apart here.

Chain of CYP3A4 (P08684 whole entry): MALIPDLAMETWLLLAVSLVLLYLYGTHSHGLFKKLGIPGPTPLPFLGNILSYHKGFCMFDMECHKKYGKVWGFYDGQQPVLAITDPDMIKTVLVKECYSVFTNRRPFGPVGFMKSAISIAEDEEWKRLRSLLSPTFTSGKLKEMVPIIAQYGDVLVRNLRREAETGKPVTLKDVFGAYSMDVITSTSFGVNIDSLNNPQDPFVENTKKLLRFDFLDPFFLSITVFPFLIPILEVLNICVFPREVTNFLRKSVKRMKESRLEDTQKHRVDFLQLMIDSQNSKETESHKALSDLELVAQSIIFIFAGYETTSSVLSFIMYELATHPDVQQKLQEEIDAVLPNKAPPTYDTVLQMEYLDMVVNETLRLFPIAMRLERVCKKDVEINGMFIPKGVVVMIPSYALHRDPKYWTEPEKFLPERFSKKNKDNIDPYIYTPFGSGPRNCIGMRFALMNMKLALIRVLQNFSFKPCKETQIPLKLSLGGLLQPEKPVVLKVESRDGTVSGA
Chain of P-glycoprotein (P-gp) (P08183 whole entry): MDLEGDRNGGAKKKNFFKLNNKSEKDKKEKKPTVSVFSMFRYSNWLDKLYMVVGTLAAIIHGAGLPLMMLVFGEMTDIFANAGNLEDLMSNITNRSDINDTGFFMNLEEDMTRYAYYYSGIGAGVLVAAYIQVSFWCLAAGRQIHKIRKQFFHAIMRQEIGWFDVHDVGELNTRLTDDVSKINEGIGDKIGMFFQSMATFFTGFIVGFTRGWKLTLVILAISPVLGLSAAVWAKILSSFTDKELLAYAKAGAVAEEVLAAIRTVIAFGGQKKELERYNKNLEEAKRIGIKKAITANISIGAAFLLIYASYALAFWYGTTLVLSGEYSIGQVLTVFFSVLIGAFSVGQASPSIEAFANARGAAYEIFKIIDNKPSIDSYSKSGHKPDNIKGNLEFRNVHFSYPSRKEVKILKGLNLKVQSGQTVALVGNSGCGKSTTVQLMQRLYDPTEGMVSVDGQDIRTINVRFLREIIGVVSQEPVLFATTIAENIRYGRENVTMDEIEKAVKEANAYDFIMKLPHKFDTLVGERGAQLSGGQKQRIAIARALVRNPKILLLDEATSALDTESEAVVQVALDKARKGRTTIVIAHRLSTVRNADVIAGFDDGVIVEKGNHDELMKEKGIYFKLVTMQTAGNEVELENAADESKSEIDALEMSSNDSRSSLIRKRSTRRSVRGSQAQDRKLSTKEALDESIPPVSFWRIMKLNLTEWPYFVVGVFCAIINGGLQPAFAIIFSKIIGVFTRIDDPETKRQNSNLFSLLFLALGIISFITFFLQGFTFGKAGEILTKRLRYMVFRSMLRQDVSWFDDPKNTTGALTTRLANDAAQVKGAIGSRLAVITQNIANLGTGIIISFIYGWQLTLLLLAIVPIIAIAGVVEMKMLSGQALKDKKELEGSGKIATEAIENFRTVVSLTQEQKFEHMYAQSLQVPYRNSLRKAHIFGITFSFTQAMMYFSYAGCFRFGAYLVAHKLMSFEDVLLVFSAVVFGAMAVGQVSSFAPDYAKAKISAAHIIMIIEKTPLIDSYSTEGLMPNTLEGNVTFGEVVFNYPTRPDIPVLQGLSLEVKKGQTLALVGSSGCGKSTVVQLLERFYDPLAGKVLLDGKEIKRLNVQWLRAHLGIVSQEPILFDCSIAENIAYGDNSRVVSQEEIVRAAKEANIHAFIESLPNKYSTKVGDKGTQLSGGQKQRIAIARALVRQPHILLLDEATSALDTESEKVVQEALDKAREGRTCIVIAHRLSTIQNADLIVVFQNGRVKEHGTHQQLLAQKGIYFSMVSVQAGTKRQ

With `C[C@@]1(c2ccc(Cl)cc2Cl)OC[C@@H](COc2ccc(N3CCN(c4ccc(NC(=O)c5cccnc5)cc4)CC3)cc2)O1` [Compound 13, N-(4-(4-(4-(((2R,4R)-2-(2,4-dichlorophenyl)-2-methyl-1,3-dioxolan-4-yl)methoxy)phenyl)piperazin-1-yl)phenyl)nicotinamide], the “T1/2 (HLM, min)” value in series [1] is given as “significantly different half-lives”. For the same compound, the IC50 in series [2] (Table 6) was > 10000 nM. In series [3], the “Solubility” value was 4.2 nM (≈ 2.6 ng/mL). Besides, the PAMPA result in series [4] is reported as “Poor”.
With `C[C@@]1(c2ccc(Cl)cc2Cl)OC[C@@H](COc2ccc(N3CCN(c4ccc(NC(=O)c5cccc(O)c5)cc4)CC3)cc2)O1` [Compound 27, N-(4-(4-(4-(((2R,4R)-2-(2,4-dichlorophenyl)-2-methyl-1,3-dioxolan-4-yl)methoxy)phenyl)piperazin-1-yl)phenyl)-3-hydroxybenzamide], the “T1/2 (HLM, min)” value in series [1] is >231 min. Also, the IC50 in series [2] (Table 6) is 2800 ± 1500 nM. Moreover, the “Solubility” value in series [3] was determined as 1.4 nM (≈ 0.888 ng/mL).
Turning to `C[C@]1(c2ccc(Cl)cc2Cl)OC[C@@H](COc2ccc(N3CCN(c4ccc(NC(=O)c5cccc(O)c5)cc4)CC3)cc2)O1` [Compound 30, N-(4-(4-(4-(((2S,4R)-2-(2,4-dichlorophenyl)-2-methyl-1,3-dioxolan-4-yl)methoxy)phenyl)piperazin-1-yl)phenyl)-3-hydroxybenzamide], in series [1], the “T1/2 (HLM, min)” value is “did not significantly change”. Also, the IC50 in series [5] (read-out: CYP3A4, Table 9) amounted to 11400 nM; in series [2] (Table 6), 350 ± 60 nM. In addition, in series [3], the “Solubility” value came to 1.6 nM (≈ 1.02 ng/mL). In addition, the PAMPA entry in series [4] is “Poor”.
With `CC(=O)c1cccc(C(=O)Nc2ccc(N3CCN(c4ccc(OC[C@@H]5CO[C@](C)(c6ccc(Cl)cc6Cl)O5)cc4)CC3)cc2)c1` [Compound 34, 3-acetyl-N-(4-(4-(4-(((2S,4R)-2-(2,4-dichlorophenyl)-2-methyl-1,3-dioxolan-4-yl)methoxy)phenyl)piperazin-1-yl)phenyl)benzamide], the “T1/2 (HLM, min)” value in series [1] is 11.4 ± 0.06 min. Besides, in series [5], the IC50 was > 30000 nM. Besides, in series [2] (Table 7), the GI50 amounted to 1000 ± 300 nM. For the same compound, the “Solubility” value in series [3] worked out at 1.4 nM (≈ 0.925 ng/mL).
Consider `C[C@@]1(c2ccc(Cl)cc2Cl)OC[C@@H](COc2ccc(N3CCN(c4ccc(NC(=O)NN)cc4)CC3)cc2)O1` [Compound 39, N-(4-(4-(4-(((2R,4R)-2-(2,4-dichlorophenyl)-2-methyl-1,3-dioxolan-4-yl)methoxy)phenyl)piperazin-1-yl)phenyl)hydrazinecarboxamide], for which the “T1/2 (HLM, min)” value in series [1] was determined as 20.1 ± 0.6 min. Also, the IC50 in series [5] was > 30000 nM; in series [2] (Table 8) it was 500 ± 400 nM. For the same compound, the “Solubility” value in series [3] was 9.3 nM (≈ 5.32 ng/mL).
As to `C[C@]1(c2ccc(Cl)cc2Cl)OC[C@@H](COc2ccc(N3CCN(c4ccc(NC(=O)NN)cc4)CC3)cc2)O1` [Compound 40, N-(4-(4-(4-(((2S,4R)-2-(2,4-dichlorophenyl)-2-methyl-1,3-dioxolan-4-yl)methoxy)phenyl)piperazin-1-yl)phenyl)hydrazinecarboxamide], the “T1/2 (HLM, min)” value in series [1] is 11.5 ± 0.1 min. Moreover, the IC50 in series [5] is > 30000 nM; in series [2] (Table 8), 2800 ± 900 nM. The “Solubility” value in series [3] stood at 1.4 nM (≈ 0.801 ng/mL).
Take `CC[C@@H](C)n1ncn(-c2ccc(N3CCN(c4ccc(OC[C@@H]5CO[C@@](C)(c6ccc(F)cc6F)C5)cc4)CC3)cc2)c1=O` [Compound P1, 2-((R)-sec-butyl)-4-(4-(4-(4-(((3R,5R)-5-(2,4-difluorophenyl)-5-methyltetrahydrofuran-3-yl)methoxy)phenyl)-piperazin-1-yl)phenyl)-2,4-dihydro-3H-1,2,4-triazol-3-one]: the “CYP3A4 IC50 (μM)” value in series [5] (Table P1) is “decreased CYP3A4 inhibition”. The IC50 in series [5] (human) is > 20000 nM; in series [2] (Table P1), 610 ± 120 nM; in series [7] (Mus musculus, ASZ001, Table P1, ASZ cells, Gli1 mRNA, 48 h incubation, read-out: IC50), 190 nM. In series [6], the “P-gp (Efflux)” value is “No Efflux”. For the same compound, in series [7] (ASZ cells, IC50 ratio vs PSZ), the “times more potent than PSZ” value is 2.5 times.
With `C[C@]1(c2ccc(F)cc2F)C[C@H](COc2ccc(N3CCN(c4ccc(-n5cnn(CCCO)c5=O)cc4)CC3)cc2)CO1` [Compound P15, 4-(4-(4-(4-(((3R,5R)-5-(2,4-difluorophenyl)-5-methyltetrahydrofuran-3-yl)methoxy)phenyl)piperazin-1-yl)phenyl)-2-(3-hydroxypropyl)-2,4-dihydro-3H-1,2,4-triazol-3-one], the IC50 in series [7] (setting [8]) worked out at 20 ± 10 nM.
Take `C[C@]1(c2ccc(F)cc2F)C[C@H](COc2ccc(N3CCN(c4ccc([N+](=O)[O-])cc4)CC3)cc2)CO1` [Compound P19, 1-(4-(((3R,5R)-5-(2,4-difluorophenyl)-5-methyltetrahydrofuran-3-yl)methoxy)phenyl)-4-(4-nitrophenyl)piperazine]: the IC50 in series [7] (setting [8]) was found to be 740 ± 150 nM.
For `C[C@]1(c2ccc(F)cc2F)C[C@H](COc2ccc(N3CCN(c4ccc(N)cc4)CC3)cc2)CO1` [Compound P20, 4-(4-(4-(((3R,5R)-5-(2,4-difluorophenyl)-5-methyltetrahydrofuran-3-yl)methoxy)phenyl)piperazin-1-yl)aniline], the IC50 in series [7] (setting [8]) came to 330 ± 120 nM.
Take `C[C@]1(c2ccc(F)cc2F)C[C@H](COc2ccc(N3CCN(c4ccc(NC(=O)Oc5ccccc5)cc4)CC3)cc2)CO1` [Compound P21, phenyl (4-(4-(4-(((3R,5R)-5-(2,4-difluorophenyl)-5-methyltetrahydrofuran-3-yl)methoxy)phenyl)piperazin-1-yl)phenyl)carbamate]: in series [7] (Mus musculus, ASZ001, 48 h), the IC50 was > 10000 nM.
`C[C@]1(c2ccc(F)cc2F)C[C@H](COc2ccc(N3CCN(c4ccc(NC(=O)NN)cc4)CC3)cc2)CO1` [Compound P22, N-(4-(4-(4-(((3R,5R)-5-(2,4-difluorophenyl)-5-methyltetrahydrofuran-3-yl)methoxy)phenyl)piperazin-1-yl)phenyl)hydrazinecarboxamide]: in series [7] (setting [8]), the IC50 is 220 ± 80 nM.
With `C[C@]1(c2ccc(F)cc2F)C[C@H](COc2ccc(N3CCN(c4ccc(-n5cn[nH]c5=O)cc4)CC3)cc2)CO1` [Compound P23, 4-(4-(4-(4-(((3R,5R)-5-(2,4-difluorophenyl)-5-methyltetrahydrofuran-3-yl)methoxy)phenyl)piperazin-1-yl)phenyl)-2,4-dihydro-3H-1,2,4-triazol-3-one], in series [7] (setting [8]), the IC50 was found to be 190 ± 100 nM.
Consider `CC(=O)c1cccc(C(=O)Nc2ccc(N3CCN(c4ccc(OC[C@@H]5CO[C@@](C)(c6ccc(F)cc6F)C5)cc4)CC3)cc2)c1` [Compound P24, 3-acetyl-N-(4-(4-(4-(((3R,5R)-5-(2,4-difluorophenyl)-5-methyltetrahydrofuran-3-yl)methoxy)phenyl)piperazin-1-yl)phenyl)benzamide], for which, in series [7] (setting [8]), the IC50 was 24 ± 9 nM.
For `C[C@]1(c2ccc(F)cc2F)C[C@H](COc2ccc(N3CCN(c4ccc(NC(=O)c5cccc(O)c5)cc4)CC3)cc2)CO1` [Compound P25, N-(4-(4-(4-(((3R,5R)-5-(2,4-difluorophenyl)-5-methyltetrahydrofuran-3-yl)methoxy)phenyl)piperazin-1-yl)phenyl)-3-hydroxybenzamide], in series [7] (setting [8]), the IC50 turned out to be 190 ± 30 nM.
With `C[C@]1(c2ccc(F)cc2F)C[C@H](COc2ccc(N3CCN(c4ccc(NC(=O)c5cccnc5)cc4)CC3)cc2)CO1` [Compound P26, N-(4-(4-(4-(((3R,5R)-5-(2,4-difluorophenyl)-5-methyltetrahydrofuran-3-yl)methoxy)phenyl)piperazin-1-yl)phenyl)nicotinamide], in series [7] (Table P2, ASZ cells, Gli1 mRNA, 48 h incubation, read-out: IC50), the IC50 was 38 nM.

For the origin of these results see US11390613B2, “Azole analogues and methods of use thereof” (UNIVERSITY OF CONNECTICUT, priority 2017, dated 2022).
